Measurements: article PMC10770036, “Novel dual inhibitors of PARP and HDAC induce intratumoral STING-mediated antitumor immunity in triple-negative breast cancer” (Cell Death & Disease, 2024)

Key:
PARP2 = target: T1, PARP2 (Homo sapiens, UniProt Q9UGN5); test: PARP2 enzymatic inhibition assay (PARP2 Colorimetric Assay Kit); type: biochemical
T1 construct: purchased BPS Bioscience 80581
Description: Briefly, the 1× histone mixture was added to each well and incubated overnight at 4 °C. Each well was washed three times with 200 µL 1× TBST buffer and filled with 200 µL Blocking buffer at room temperature for 90 min. Then, each well was filled with 25 µL of PARP master mixture (5 μL activated DNA + 2.5 μL 10× PARP Assay mixture + 2.5 μL 10× PARP buffer + 15 μL distilled water). Next, 5 µL of the compound of different concentrations was added to each well, and PARP enzyme was added and incubated at room temperature for 1 h. Next, streptavidin HRP solution was added and incubated at room temperature for 30 min. After adding 100 µL of colorimetric HRP substrate to each well, the plate was incubated until a blue color developed in the positive well, which contained PARP enzyme without inhibitors. The reaction was then quenched with 2 M sulfuric acid, and absorbance at 450 nm was measured using a microplate reader (BioTek, Winooski, VT, USA). After calculating the inhibition rate, the IC50 value was determined.

H3K9 acetylation = test: Western blot of histone H3 lysine 9 acetylation in TNBC cells; type: cell-based, human; details: TNBC cell lines, 48 h
Description: Western blot analysis was performed as previously described, and all western blot analyses were performed at least three times.
Western blot analysis was performed as previously described. Briefly, whole cell or tissue lysates were prepared using ice-cold Nonidet P-40 buffer mixed with protease and phosphatase inhibitors (Roche, IN, USA) and centrifuged at 14,000 × g at 4 °C for 10 min. The protein lysates were fractionated by sodium dodecyl sulfate–polyacrylamide gel electrophoresis (SDS–PAGE) and transferred to polyvinylidene fluoride (PVDF) membranes (Merck, Darmstadt, Germany). Membranes were incubated in 1× TBST buffer containing 5% nonfat powdered milk at room temperature for 2 h. The indicated primary antibody was incubated with PVDF membranes, followed by a washing step using 1× TBST and a secondary antibody conjugated to HRP. Signal detection was carried out using the Western ECL Substrate kit (Bio-Rad, Hercules, CA, USA). […]

MDA-MB-468 cells = test: MTT cell viability assay, MDA-MB-468; details: Homo sapiens, MDA-MB-468, 72 h, read-out: IC50 MDA-MB-468
Description: (§1) The viability assay was measured by a 3-(4,5-dimethylthiazol-2-yl)−2,5-diphenyltetrazolium bromide (MTT) assay.
(§2) In brief, cells were seeded at a density of 6,000 cells in 96-well plates and cultured overnight. […] After aspiration of the medium, the formazan crystals were dissolved in 100 μL of DMSO. The absorbance at 490 nm was measured using a microplate reader (BioTek). All these analyses were performed at least three times.

MDA-MB-436 cells = test: MTT cell viability assay, MDA-MB-436; details: Homo sapiens, MDA-MB-436, 72 h, read-out: IC50 MDA-MB-436
Description: as §1, §2

[1] = Body weight of tumor-bearing mice; type: in vivo
Excerpt: MDA-MB-436, MDA-MB-231, and 4T1 cells were orthotopically injected into the fat pads of 6- to 7-week-old female NOD-Prkdc^scid Il2rg^em1Smoc (M-NSG), BALB/c nude and BALB/c mice, respectively. Fourteen 6-week-old female MMTV-PyMT mice were divided into two groups. The […] in each group were littermates. All animal procedures were approved by the Institutional Animal Care and Use Committee at Shenzhen University.
MDA-MB-436 cells (5 × 10^6) were suspended in PBS and Matrigel (Corning) at a 1:1 ratio and orthotopically injected into the fat pads of 6- to 7-week-old female NOD-Prkdc^scid Il2rg^em1Smoc (M-NSG) mice from the Shanghai Model Organisms Center, Inc. MDA-MB-231 cells (5 × 10^6) were suspended in PBS orthotopically injected into the fat pads of 6- to 7-week-old female BALB/c nude mice from the Shanghai Model Organisms Center, Inc. 4T1 cells (1 × 10^6) were suspended in PBS and injected into the fat pads of 6- to 7-week-old […] BALB/c mice from GemPharmatech Co., Ltd. When the tumor size reached 100 mm^3, the mice were randomly divided into three treatment groups without blinding: B102 (15 mg/kg), B302 (50 mg/kg) or vehicle [10% N,N-dimethylacetamide (DMAC, Sangon Biotech) and 6% polyethylene glycol 12-hydroxystearate (Solutol HS-15, MedChem Express, Monmouth Junction, NJ, USA) in saline] treatment via an intraperitoneal injection once daily. […]

T1 sequence (Q9UGN5 whole entry): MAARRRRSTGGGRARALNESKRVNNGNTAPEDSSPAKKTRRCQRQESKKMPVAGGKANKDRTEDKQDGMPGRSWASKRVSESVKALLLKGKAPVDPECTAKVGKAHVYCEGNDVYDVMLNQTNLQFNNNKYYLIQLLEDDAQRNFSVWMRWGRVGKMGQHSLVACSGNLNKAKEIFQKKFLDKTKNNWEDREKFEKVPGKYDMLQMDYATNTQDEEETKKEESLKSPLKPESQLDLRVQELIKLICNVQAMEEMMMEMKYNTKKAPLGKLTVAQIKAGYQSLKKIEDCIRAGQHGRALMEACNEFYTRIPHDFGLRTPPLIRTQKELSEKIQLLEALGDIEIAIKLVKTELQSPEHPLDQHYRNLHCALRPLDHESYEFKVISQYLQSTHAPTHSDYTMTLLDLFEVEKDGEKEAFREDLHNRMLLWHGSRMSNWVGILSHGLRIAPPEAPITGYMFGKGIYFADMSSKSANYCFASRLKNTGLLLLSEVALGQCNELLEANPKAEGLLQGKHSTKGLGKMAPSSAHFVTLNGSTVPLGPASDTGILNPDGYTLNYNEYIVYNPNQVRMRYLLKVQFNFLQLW

SMILES | IC50 (PARP2) [nM] | acetylation of lysine 9 of histone H3 (H3K9) (H3K9 acetylation) | IC50 (MDA-MB-468 cells) [nM] | IC50 (MDA-MB-436 cells) [nM] | body weights of tumor-bearing mice ([1]; 15 mg/kg/d) | body weights of tumor-bearing mice ([1]; 50 mg/kg/d)
Nc1cc(F)ccc1NC(=O)/C=C/c1ccc(CN2CCN(C(=O)c3cc(Cc4n[nH]c(=O)c5ccccc45)ccc3F)CC2)cc1 [Compound B102] | 2.13 | elevated the acetylation | 270 ± 110 | 160 ± 50 | not obviously altered | 
Nc1cc(F)ccc1NC(=O)CCc1ccc(CN2CCN(C(=O)c3cc(Cc4n[nH]c(=O)c5ccccc45)ccc3F)CC2)cc1 [Compound B302] | 57 | elevated the acetylation | 1270 ± 580 | 4120 ± 1020 |  | not obviously altered
